Tests used:
[1] = system: HMLER cells; test: Mammosphere (tumorsphere) formation of HMLER cells after short-term drug treatment; type: cell-based, human; settings: 24 hours treatment, 24 hours recovery, 7 days drug-free sphere culture
Description: (§1) Nor was any difference observed between BPLER and HMLER cells with paclitaxel or 5-fluorouracil (FIG. 3B). As noted above, tumorsphere formation capacity correlates with TSC subpopulations. With the tumorsphere assay employed, a single tumor cell can form a multicellular tumorsphere in suspension. To assess the short term effect of drug treatment, drugs were removed after treating the tumor cells in routine 2D culture conditions for 24 hours, and after a recovery period of 24 hours tumorsphere cultures were suspended in a medium free of drugs for 7 days.
(§2) BPLER and HMLER cells were maintained in WIT-T (Stemgent) and MGEM (Lonza) medium at 37° C. and 5% CO2. The remaining cell lines were grown in DMEM/F12 (Gibco) with 10% fetal bovine serum (FBS) at 37° C. and 5% CO2. The BPLER cells were grown on Primaria plasticware (BD Biosciences). The remaining cells were grown on standard plasticware (Falcon). The mammospheres were maintained in a 1:1 ratio of WIT-T/MEGM (less bovine pituitary extract) using 2% B27 (Invitrogen), 20 ng/ml EGF, 20 ng/ml bFGF (BD Biosciences), 4 ug/ml heparin (Sigma), and 0.5% methyl cellulose. Sphere formation experiments were carried out by plating 15,000-20,000 cells/well into 6-well ultra-low attachment plates (Corning). The cells were fed at days 1, 3, and 5, and spheres were counted at day 7.
(§3) Drug treatment experiments were performed in a 1:1 ratio of WIT-T/MEGM media. […] To evaluate the drug effect on 2D proliferation of BPLER and HMLER cells, the cells were plated at 125,000 cells/well in 6-well Primaria plates. Drug-containing media was added to each well after 24 hours. The cells were treated continuously for 4 days with drug-containing media changes each day. Cell number was counted with a hemocytometer after 4 days of treatment. To evaluate the drug effect on BPLER and HMLER cell mammosphere formation, cells were plated at 50% confluence in Primaria flasks. After 24 hours, drug-containing media was added to each flask. After 24 hours of treatment with the drug-containing media, the cells recovered for 24 hours in a drug-free media. […]

[2] = system: BPLER cells; type: cell-based, human; settings: only when the drugs were present
Description: as §2
as §3, with “flasks.” for “flasks. After 24 hours, drug-containing media was added to each flask. After 24 hours of treatment with the drug-containing media, the cells recovered for 24 hours in a drug-free media.”

[3] = system: HMLER cells; test: Drug effect on 2D proliferation of HMLER cells; type: cell-based, human; settings: only when the drugs were present
Description: as §2
as §3, with “flasks.” for “flasks. After 24 hours, drug-containing media was added to each flask. After 24 hours of treatment with the drug-containing media, the cells recovered for 24 hours in a drug-free media.”

[4] = system: BPLER cells; test: Mammosphere (tumorsphere) formation of BPLER cells after short-term drug treatment; type: cell-based, human; settings: for BPLER cell capacity to form mammospheres (tumorsphere formation): 24 hours treatment, 24 hours recovery, 7 days drug-free sphere culture; for difference in response between BPLER and HMLER cells: BPLER vs HMLER
Description: as §1, §2
Drug treatment experiments were performed in a 1:1 ratio of WIT-T/MEGM media. […] To evaluate the drug effect on 2D proliferation of BPLER and HMLER cells, the cells were plated at 125,000 cells/well in 6-well Primaria plates. Drug-containing media was added to each well after 24 hours. The cells were treated continuously for 4 days with drug-containing media changes each day. Cell number was counted with a hemocytometer after 4 days of treatment. To evaluate the drug effect on BPLER and HMLER cell mammosphere formation, cells were plated at 50% confluence in Primaria flasks. After 24 hours, drug-containing media was added to each flask. After 24 hours of treatment with the drug-containing media, the cells recovered for 24 hours in a drug-free media. Cells were then plated for the mammosphere protocol as described previously.

[5] = system: other Class I and Class II HDACs; settings: TSA treatment of breast tumor cells; cited from earlier work

Row | SMILES | HMLER cell capacity to form mammospheres (tumorsphere formation) [1] | cytotoxic effect on BPLER cells [2] | cytotoxic effect on HMLER cells [3] | BPLER cell capacity to form mammospheres (tumorsphere formation) [4] | difference in response between BPLER and HMLER cells [4] | changes in expression of other Class I and Class II HDACs [5]
1 | O=c1[nH]cc(F)c(=O)[nH]1 [5-fluorouracil] | not inhibited | cytotoxic effect | cytotoxic effect | not inhibited | no difference | –
2 | CC(/C=C/C(=O)NO)=C\[C@@H](C)C(=O)c1ccc(N(C)C)cc1 [TSA, trichostatin A] | did not affect | – | – | significantly decreased | – | less than 2 fold
3 | CC(=O)O[C@H]1C(=O)[C@@]2(C)[C@H]([C@H](OC(=O)c3ccccc3)[C@]3(O)C[C@H](OC(=O)[C@H](O)[C@@H](NC(=O)c4ccccc4)c4ccccc4)C(C)=C1C3(C)C)[C@]1(OC(C)=O)CO[C@@H]1C[C@@H]2O [paclitaxel] | not inhibited | cytotoxic effect | cytotoxic effect | not inhibited | no difference | –

— patent publication US8912156B1, “Markers for and methods of targeting tumor stem cells” (Whitehead Institute for Biomedical Research, priority 2011, dated 2014)
